Source: patent US8853246B2 (Dow AgroSciences LLC, priority 2009, dated 2014)

Key:
[1] = tested on: Green Peach Aphid (Myzus Persicae); experiment: Insecticidal test for green peach aphid in foliar spray assay (col. MYZUPE); assay type: in vivo; conditions: Myzus persicae, 72 h, Abbott's correction formula, read-out: MYZUPE 200 ppm (Corrected % Control, rating)
In short: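 Cabbage seedlings with 2-3 true leaves, infested with 20-50 wingless adult and nymph aphids one day earlier, sprayed to runoff at 200 ppm (acetone/methanol stock diluted in 0.025% Tween 20), four pots per treatment. After 3 days at ~25 °C, 40% RH, live aphids counted; corrected % control versus solvent-sprayed plants.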

[2] = tested on: Sweetpotato Whitefly-Crawler (Bemisia Tabaci); experiment: Insecticidal test for sweetpotato whitefly-crawler in foliar spray assay (col. BEMITA); assay type: in vivo; conditions: Bemisia tabaci, Abbott's correction formula, read-out: BEMITA 200 ppm (Corrected % Control, rating)
In short: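 Cotton plants (one 3-5 cm true leaf) infested with whitefly eggs (100-300/plant), held 5-6 days at 82° F, 50% RH until crawlers developed. Sprayed to runoff at 200 ppm (acetone stock diluted in 0.025% Tween 20), four plants per treatment. Live nymphs counted after 8-9 days; % control by Abbott's correction versus solvent check.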

SMILES	pest or weed control at 200 ppm [1] [%]	pest or weed control at 200 ppm [2] [%]
CCN(C(=O)CCSC)c1sc(-c2cccnc2)nc1Br [Compound 458]	80 to 100	80 to 100
COCCN(C(=O)OC(C)(C)C)c1sc(-c2cccnc2)nc1C [Compound 460]	< 80	< 80
Cc1nc(-c2cccnc2)sc1N(CC1CC1(F)F)C(=O)OC(C)(C)C (stereo not shown) [Compound 461]	80 to 100	< 80
Cc1nc(-c2cccnc2)sc1N(CC1CC1)C(=O)OC(C)(C)C [Compound 462]	80 to 100	< 80
C/C=C/CN(C(=O)OC(C)(C)C)c1sc(-c2cccnc2)nc1C [Compound 463]	< 80	< 80
COC(=O)/C=C/CN(C(=O)C(C)CSC)c1sc(-c2cccnc2)nc1C (stereo not shown) [Compound 464]	80 to 100	< 80
COCCN(C(=O)C(C)CSC)c1sc(-c2cccnc2)nc1C (stereo not shown) [Compound 465]	80 to 100	< 80
C/C=C/CN(C(=O)C(C)CSC)c1sc(-c2cccnc2)nc1C (stereo not shown) [Compound 466]	80 to 100	< 80
CSCC(C)C(=O)N(CC1CC1(F)F)c1sc(-c2cccnc2)nc1C (stereo not shown) [Compound 467]	80 to 100	< 80
CSCC(C)C(=O)N(CC1CC1)c1sc(-c2cccnc2)nc1C (stereo not shown) [Compound 468]	80 to 100	< 80
CN(C(=O)CC[S+](C)[O-])c1sc(-c2ccc(F)nc2)nc1Cl (stereo not shown) [Compound 469]	80 to 100	< 80
CC/N=C(\SCC)N(C)c1sc(-c2cccnc2)nc1C [Compound 471, 2,3-diethyl-1-methyl-1-(4-methyl-2-pyridin-3-yl-thiazol-5-yl)-isothiourea]	80 to 100	< 80
CCCCS/C(=N\CC)N(C)c1sc(-c2cccnc2)nc1C [Compound 472]	80 to 100	< 80
CCN(C(=O)CC(C)SC)c1sc(-c2cccnc2)nc1Br (stereo not shown) [Compound 480]	80 to 100	80 to 100
CCCC(C)OC(=O)N(C)c1sc(-c2cccnc2)nc1C (stereo not shown) [Compound 482]	80 to 100	80 to 100
CCCCOC(=O)N(C)c1sc(-c2cccnc2)nc1C [Compound 483]	< 80	80 to 100
COCC(C)OC(=O)N(C)c1sc(-c2cccnc2)nc1C (stereo not shown) [Compound 484]	< 80	80 to 100
COCCOC(=O)N(C)c1sc(-c2cccnc2)nc1C [Compound 485]	80 to 100	80 to 100
Cc1nc(-c2cccnc2)sc1N(C)C(=O)OCC(F)(F)F [Compound 486]	80 to 100	< 80
CSC(C)(C)CC(=O)N(C)c1sc(-c2cccnc2)nc1Cl [Compound 489]	80 to 100	80 to 100
CCN(C(=O)CC(C)(C)SC)c1sc(-c2cccnc2)nc1Cl [Compound 490]	80 to 100	< 80
Cc1nc(-c2cccnc2)sc1N(C)C(=O)OC(C)(C)C(F)(F)F [Compound 492]	< 80	80 to 100
Cc1nc(-c2cccnc2)sc1N(C)C(=O)OC1(C)CCCCC1 [Compound 493]	80 to 100	80 to 100
CCN(C(=O)C(CSC)C(=O)CCSC)c1sc(-c2cccnc2)nc1Cl (stereo not shown) [Compound 496]	80 to 100	< 80

SMILES	pest or weed control at 200 ppm [1] [%]	pest or weed control at 200 ppm [2] [%]
CSCCC(=O)N(C)c1sc(-c2cccnc2)nc1Br [Compound 498]	80 to 100	80 to 100
CSC(C)CC(=O)N(C)c1sc(-c2cccnc2)nc1Br (stereo not shown) [Compound 499]	80 to 100	< 80
CSCCC(=O)N(C)c1sc(-c2cncc(Cl)c2)nc1Cl [Compound 500]	80 to 100	80 to 100
CN(C(=O)CC[S+](C)[O-])c1sc(-c2cncc(Cl)c2)nc1Cl (stereo not shown) [Compound 501]	80 to 100	80 to 100
CC(CC(=O)N(C)c1sc(-c2cccnc2)nc1Br)[S+](C)[O-] (stereo not shown) [Compound 504]	80 to 100	80 to 100
CSCC(C)C(=O)N(C)c1sc(-c2cccnc2)nc1Br (stereo not shown) [Compound 505]	80 to 100	80 to 100
CN(C(=O)CC[S+](C)[O-])c1sc(-c2cccnc2)nc1Br (stereo not shown) [Compound 506]	80 to 100	< 80
CN(C(=O)CCS(C)(=O)=O)c1sc(-c2cccnc2)nc1Br [Compound 507]	80 to 100	80 to 100
CSCCC(=O)N(C)c1sc(-c2cncc(C#N)c2)nc1Cl [Compound 508]	< 80	80 to 100
CSCCC(=O)N(C)c1sc(-c2cncnc2)nc1Cl [Compound 509]	80 to 100	80 to 100
CSCCNC(=S)N(C)c1sc(-c2cncc(F)c2)nc1Cl [Compound 511]	80 to 100	< 80
CN(C(=S)NCCSc1ccc(Cl)cc1)c1sc(-c2cccnc2)nc1Cl [Compound 512]	< 80	80 to 100
COc1cncc(-c2nc(Cl)c(N(C)C(=O)CCSC)s2)c1 [Compound 513]	< 80	< 80
COc1cncc(-c2nc(Cl)c(N(C)C(=O)CC[S+](C)[O-])s2)c1 (stereo not shown) [Compound 514]	< 80	< 80
CSC(C)C(C)C(=O)N(C)c1sc(-c2cccnc2)nc1Cl (stereo not shown) [Compound 516]	80 to 100	< 80
CN(C(=O)C1CCSC1)c1sc(-c2cccnc2)nc1Cl (stereo not shown) [Compound 517]	80 to 100	< 80
CCOC1(N(C(=O)OC(C)(C)C)c2sc(-c3cccnc3)nc2C)CC1 [Compound 518]	80 to 100	< 80
CC(CC(=O)N(C)c1sc(-c2cccnc2)nc1Cl)[S+](C)[O-] (stereo not shown) [Compound 520]	80 to 100	< 80
CN(C(=O)CC(C)(C)[S+](C)[O-])c1sc(-c2cccnc2)nc1Cl (stereo not shown) [Compound 521]	80 to 100	< 80
CC(C(=O)N(C)c1sc(-c2cccnc2)nc1Cl)C(C)[S+](C)[O-] (stereo not shown) [Compound 522]	80 to 100	< 80
CN(C(=O)C1CC[S+]([O-])C1)c1sc(-c2cccnc2)nc1Cl (stereo not shown) [Compound 523]	80 to 100	< 80
CCN(C(=O)CC(C)[S+](C)[O-])c1sc(-c2cccnc2)nc1Cl (stereo not shown) [Compound 524]	80 to 100	80 to 100
CCN(C(=O)c1ccsc1)c1sc(-c2cccnc2)nc1Cl [Compound 527]	< 80	80 to 100
